Legend:
[1] = target: Platelet-derived growth factor receptor alpha (Homo sapiens, UniProt P16234); assay: Inhibition of PDGFRalpha (unknown origin) using poly[Glu:Tyr] (4:1) substrate by radioisotope-based P81 filter-binding assay
[2] = tested on: A549; assay: Cytotoxicity against human A549 cells by SRB assay; assay type: cell-based
[3] = target: T1, Aurora kinase A (Homo sapiens, UniProt O14965); assay: Inhibition of Aurora A (unknown origin) using H-LRRASLG substrate by radioisotope-based P81 filter-binding assay
T1 sequence (O14965 whole entry): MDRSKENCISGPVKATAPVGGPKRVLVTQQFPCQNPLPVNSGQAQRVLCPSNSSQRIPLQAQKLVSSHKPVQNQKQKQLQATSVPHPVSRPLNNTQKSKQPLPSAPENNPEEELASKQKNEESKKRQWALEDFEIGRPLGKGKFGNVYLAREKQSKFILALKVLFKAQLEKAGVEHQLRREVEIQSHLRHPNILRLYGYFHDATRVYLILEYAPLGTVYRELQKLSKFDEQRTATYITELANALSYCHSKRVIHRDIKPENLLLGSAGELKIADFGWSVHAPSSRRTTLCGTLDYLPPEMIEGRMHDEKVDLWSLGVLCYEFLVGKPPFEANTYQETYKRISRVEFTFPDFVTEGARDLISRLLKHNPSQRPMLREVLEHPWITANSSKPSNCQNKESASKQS

[4] = target: Vascular endothelial growth factor receptor 2 (Homo sapiens, UniProt P35968); assay: Inhibition of VEGFR2 (unknown origin) using poly[Glu:Tyr] substrate by radioisotope-based P81 filter-binding assay
[5] = tested on: HepG2; assay: Cytotoxicity against human HepG2 cells by SRB assay; assay type: cell-based
[6] = target: T2, Aurora kinase C (Homo sapiens, UniProt Q9UQB9); assay: Inhibition of Aurora C (unknown origin) using H-LRRASLG substrate by radioisotope-based P81 filter-binding assay
T2 sequence (Q9UQB9 whole entry): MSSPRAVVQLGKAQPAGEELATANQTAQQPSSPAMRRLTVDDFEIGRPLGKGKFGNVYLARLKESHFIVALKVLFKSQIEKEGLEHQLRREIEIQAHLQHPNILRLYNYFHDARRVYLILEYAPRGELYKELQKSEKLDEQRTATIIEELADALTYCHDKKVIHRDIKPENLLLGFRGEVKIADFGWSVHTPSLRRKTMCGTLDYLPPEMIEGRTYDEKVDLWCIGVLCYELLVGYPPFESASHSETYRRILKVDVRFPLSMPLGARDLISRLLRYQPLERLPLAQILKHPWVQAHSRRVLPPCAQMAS

[7] = target: Platelet-derived growth factor receptor beta (Homo sapiens, UniProt P09619); assay: Inhibition of PDGFRbeta (unknown origin) using poly[Glu:Tyr] (4:1) substrate by radioisotope-based P81 filter-binding assay
[8] = target: T3, Receptor-type tyrosine-protein kinase FLT3 (Homo sapiens, UniProt P36888); assay: Inhibition of Flt3 (unknown origin) using EAIYAAPFAKKK substrate by radioisotope-based P81 filter-binding assay
T3 sequence (P36888 whole entry): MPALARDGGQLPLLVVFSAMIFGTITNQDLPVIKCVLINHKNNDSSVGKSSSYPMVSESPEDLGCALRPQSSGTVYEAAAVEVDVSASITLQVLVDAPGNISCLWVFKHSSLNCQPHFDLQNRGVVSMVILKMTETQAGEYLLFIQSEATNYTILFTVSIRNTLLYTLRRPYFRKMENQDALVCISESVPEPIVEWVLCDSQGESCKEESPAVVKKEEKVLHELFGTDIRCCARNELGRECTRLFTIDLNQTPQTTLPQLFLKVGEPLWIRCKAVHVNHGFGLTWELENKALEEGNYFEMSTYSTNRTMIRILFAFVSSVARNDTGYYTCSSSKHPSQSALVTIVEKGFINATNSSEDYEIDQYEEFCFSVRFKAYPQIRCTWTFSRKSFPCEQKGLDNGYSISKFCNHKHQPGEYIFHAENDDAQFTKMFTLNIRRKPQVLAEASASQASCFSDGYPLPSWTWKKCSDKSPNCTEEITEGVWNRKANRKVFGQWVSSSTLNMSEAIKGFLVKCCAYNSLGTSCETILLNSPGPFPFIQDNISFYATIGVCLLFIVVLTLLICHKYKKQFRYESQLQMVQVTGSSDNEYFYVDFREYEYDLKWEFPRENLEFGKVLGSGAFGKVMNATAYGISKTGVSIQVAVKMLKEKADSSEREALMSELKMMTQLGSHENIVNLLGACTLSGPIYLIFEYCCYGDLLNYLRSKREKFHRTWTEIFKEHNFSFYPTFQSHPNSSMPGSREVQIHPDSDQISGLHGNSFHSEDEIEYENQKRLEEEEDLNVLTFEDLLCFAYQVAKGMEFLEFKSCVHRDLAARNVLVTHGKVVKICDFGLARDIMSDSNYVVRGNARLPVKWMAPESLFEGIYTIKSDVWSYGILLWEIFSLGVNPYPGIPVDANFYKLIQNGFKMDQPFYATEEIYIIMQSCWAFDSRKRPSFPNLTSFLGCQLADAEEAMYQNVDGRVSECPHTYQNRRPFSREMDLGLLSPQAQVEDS

[9] = target: Aurora kinase B (Homo sapiens, UniProt Q96GD4); assay: Inhibition of Aurora B (unknown origin) using H-LRRASLG substrate by radioisotope-based P81 filter-binding assay
[10] = target: Hepatocyte growth factor receptor (Homo sapiens, UniProt P08581); assay: Inhibition of c-Met (unknown origin) using KKKSPGEYVNIEFG substrate by radioisotope-based P81 filter-binding assay
[11] = tested on: A549; assay: Antimigratory activity against human A549 cells assessed as inhibition of cell migration after 8 to 16 hrs by scratch wound model assay
[12] = tested on: A549; assay: Anti-invasive activity against human A549 cells assessed as inhibition of cell invasion by transwell invasion assay

Sequence of Aurora kinase B (Q96GD4 whole entry): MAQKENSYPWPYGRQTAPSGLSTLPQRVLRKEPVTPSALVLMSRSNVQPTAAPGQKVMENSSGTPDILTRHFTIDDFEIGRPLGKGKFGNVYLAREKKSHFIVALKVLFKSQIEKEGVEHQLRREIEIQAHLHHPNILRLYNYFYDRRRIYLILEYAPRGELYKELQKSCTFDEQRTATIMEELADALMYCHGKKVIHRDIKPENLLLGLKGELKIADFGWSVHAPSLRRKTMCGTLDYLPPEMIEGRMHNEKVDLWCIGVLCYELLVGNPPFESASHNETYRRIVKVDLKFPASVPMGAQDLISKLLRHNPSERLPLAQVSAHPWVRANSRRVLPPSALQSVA
Sequence of Platelet-derived growth factor receptor beta (P09619 whole entry): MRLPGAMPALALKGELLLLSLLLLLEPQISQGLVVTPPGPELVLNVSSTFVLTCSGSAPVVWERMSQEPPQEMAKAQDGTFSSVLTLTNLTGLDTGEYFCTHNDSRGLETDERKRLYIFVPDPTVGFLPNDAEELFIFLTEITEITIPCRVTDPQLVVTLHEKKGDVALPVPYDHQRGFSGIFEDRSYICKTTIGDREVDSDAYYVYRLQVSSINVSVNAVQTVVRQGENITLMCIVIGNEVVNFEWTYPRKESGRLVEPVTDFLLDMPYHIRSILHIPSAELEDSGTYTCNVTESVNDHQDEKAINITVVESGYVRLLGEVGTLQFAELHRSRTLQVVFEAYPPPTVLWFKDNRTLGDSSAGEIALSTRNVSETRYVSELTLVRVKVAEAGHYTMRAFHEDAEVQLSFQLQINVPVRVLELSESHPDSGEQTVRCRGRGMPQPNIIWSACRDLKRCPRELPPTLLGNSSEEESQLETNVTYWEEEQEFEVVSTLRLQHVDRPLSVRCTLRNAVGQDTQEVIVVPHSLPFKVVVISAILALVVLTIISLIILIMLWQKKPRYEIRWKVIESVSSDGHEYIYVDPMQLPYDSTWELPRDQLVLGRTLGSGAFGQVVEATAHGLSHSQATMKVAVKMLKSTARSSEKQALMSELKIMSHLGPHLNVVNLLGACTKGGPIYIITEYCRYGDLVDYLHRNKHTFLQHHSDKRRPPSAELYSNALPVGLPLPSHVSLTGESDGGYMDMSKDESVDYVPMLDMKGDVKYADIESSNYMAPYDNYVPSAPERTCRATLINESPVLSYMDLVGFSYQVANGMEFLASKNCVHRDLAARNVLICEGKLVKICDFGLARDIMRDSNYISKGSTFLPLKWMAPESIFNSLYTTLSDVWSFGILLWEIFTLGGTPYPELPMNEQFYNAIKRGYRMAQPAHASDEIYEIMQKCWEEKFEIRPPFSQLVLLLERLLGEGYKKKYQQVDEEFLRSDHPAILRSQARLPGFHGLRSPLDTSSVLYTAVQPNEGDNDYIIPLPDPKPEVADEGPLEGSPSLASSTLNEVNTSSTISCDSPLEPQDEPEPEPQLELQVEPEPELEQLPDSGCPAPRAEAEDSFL
Sequence of Platelet-derived growth factor receptor alpha (P16234 whole entry): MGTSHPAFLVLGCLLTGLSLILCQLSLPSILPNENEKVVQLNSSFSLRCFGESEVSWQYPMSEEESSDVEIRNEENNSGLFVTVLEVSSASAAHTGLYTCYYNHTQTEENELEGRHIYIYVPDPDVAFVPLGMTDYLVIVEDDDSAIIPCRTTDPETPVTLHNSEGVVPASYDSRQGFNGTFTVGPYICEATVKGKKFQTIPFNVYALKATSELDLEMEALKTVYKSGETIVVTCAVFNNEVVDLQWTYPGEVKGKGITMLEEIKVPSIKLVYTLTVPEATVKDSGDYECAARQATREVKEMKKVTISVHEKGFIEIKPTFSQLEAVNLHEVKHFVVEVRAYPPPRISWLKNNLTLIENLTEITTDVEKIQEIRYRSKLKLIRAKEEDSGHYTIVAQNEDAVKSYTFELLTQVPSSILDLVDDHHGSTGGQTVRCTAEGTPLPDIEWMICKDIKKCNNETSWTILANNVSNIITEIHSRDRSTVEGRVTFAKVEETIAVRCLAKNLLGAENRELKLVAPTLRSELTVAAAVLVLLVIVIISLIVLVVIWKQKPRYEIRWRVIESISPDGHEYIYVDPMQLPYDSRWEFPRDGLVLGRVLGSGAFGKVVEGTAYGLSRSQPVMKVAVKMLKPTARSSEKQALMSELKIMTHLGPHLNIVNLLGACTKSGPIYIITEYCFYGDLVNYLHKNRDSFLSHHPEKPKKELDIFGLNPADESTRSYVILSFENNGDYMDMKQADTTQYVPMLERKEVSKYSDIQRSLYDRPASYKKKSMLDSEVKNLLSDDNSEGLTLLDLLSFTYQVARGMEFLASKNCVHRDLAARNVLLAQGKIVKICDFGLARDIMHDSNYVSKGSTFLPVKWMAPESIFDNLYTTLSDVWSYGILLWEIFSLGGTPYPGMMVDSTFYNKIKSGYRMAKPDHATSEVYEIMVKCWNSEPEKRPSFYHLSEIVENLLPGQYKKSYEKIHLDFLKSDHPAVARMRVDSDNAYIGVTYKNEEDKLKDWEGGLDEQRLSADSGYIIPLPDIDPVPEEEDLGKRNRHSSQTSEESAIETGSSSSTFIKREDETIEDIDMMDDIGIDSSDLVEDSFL
Sequence of Vascular endothelial growth factor receptor 2 (P35968 whole entry): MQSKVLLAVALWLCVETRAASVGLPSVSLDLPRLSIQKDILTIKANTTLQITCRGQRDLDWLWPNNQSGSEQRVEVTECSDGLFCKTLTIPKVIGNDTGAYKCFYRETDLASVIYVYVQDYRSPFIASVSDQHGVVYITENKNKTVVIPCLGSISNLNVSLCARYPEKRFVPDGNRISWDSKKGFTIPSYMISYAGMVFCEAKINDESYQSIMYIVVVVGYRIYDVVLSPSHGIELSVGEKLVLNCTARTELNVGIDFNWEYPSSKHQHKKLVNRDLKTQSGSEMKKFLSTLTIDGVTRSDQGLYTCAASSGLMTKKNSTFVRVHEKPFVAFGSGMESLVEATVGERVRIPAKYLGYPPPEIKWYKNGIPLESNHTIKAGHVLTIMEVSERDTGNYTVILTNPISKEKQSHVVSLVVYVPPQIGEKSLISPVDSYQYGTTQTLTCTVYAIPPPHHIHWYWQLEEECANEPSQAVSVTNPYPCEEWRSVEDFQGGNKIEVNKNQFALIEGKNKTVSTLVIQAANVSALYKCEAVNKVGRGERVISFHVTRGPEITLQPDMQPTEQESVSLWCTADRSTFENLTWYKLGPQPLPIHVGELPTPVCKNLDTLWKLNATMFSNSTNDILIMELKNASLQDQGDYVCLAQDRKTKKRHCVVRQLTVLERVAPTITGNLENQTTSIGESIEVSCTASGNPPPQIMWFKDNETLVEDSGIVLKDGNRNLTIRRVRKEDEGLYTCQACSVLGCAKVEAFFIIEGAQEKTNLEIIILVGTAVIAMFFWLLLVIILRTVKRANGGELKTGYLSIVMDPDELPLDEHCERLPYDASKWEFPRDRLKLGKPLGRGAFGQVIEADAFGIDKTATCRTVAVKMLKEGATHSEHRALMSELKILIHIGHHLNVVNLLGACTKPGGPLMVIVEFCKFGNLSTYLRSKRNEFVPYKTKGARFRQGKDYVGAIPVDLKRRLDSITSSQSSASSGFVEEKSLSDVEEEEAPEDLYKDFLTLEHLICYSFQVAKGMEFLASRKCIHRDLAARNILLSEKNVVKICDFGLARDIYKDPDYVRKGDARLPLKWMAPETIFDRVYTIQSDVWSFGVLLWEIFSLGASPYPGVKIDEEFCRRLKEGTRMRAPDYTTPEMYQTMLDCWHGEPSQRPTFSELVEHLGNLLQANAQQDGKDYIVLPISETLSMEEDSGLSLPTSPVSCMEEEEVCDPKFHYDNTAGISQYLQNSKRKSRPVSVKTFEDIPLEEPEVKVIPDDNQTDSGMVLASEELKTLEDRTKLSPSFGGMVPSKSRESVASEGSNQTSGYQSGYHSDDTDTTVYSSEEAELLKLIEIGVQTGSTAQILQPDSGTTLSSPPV

Structure (SMILES)	IC50 [2]	IC50 [5]	other results
O=C(CC(=O)Nc1ccc2c(c1)NC(=O)/C2=C\c1ccc[nH]1)Nc1ccc(F)cc1	700 nM	1800 nM	IC50 [1]: 7.2 nM; IC50 [3]: 552 nM; IC50 [4]: 1770 nM; IC50 [6]: 67.2 nM; IC50 [7]: 86.9 nM; IC50 [8]: 11 nM
COc1ccc(NC(=O)CC(=O)Nc2ccc3c(c2)NC(=O)/C3=C\c2ccc[nH]2)cc1	3800 nM	2800 nM	IC50 [7]: 177 nM; IC50 [8]: 16.6 nM
COc1ccc(NC(=O)CC(=O)Nc2ccc3c(c2)NC(=O)/C3=C\c2[nH]c(C)c(C(=O)O)c2C)cc1	5400 nM	7800 nM	IC50 [9]: 5.9 nM; IC50 [10]: 31.1 nM; IC50 [1]: < 1 nM; IC50 [3]: 203 nM; IC50 [6]: 154 nM; IC50 [7]: 8.1 nM; IC50 [8]: 6.4 nM
COc1ccc(NC(=O)CC(=O)Nc2ccc3c(c2)NC(=O)/C3=C\c2[nH]c(C)c(C(=O)NCCN3CCCC3)c2C)cc1	5400 nM	5100 nM	IC50 [9]: 93 nM; IC50 [10]: 10.6 nM; IC50 [1]: < 1 nM; IC50 [4]: 20.7 nM; IC50 [7]: 1.54 nM; IC50 [8]: 2.1 nM
O=C1Nc2cc(NC(=O)C3(C(=O)Nc4ccc(F)cc4)CC3)ccc2/C1=C/c1ccc[nH]1	900 nM	1000 nM	IC50 [9]: 253 nM
COc1ccc(NC(=O)C2(C(=O)Nc3ccc4c(c3)NC(=O)/C4=C\c3ccc[nH]3)CC2)cc1	5900 nM	3900 nM	–
O=C1Nc2cccc(NC(=O)c3cccn(-c4ccc(F)cc4)c3=O)c2/C1=C/c1ccc[nH]1	4800 nM	4600 nM	–
O=C1Nc2ccc(NC(=O)c3cccn(-c4ccc(F)cc4)c3=O)cc2/C1=C/c1ccc[nH]1	5400 nM	5400 nM	–
O=C1Nc2c(NC(=O)c3cccn(-c4ccc(F)cc4)c3=O)cccc2/C1=C/c1ccc[nH]1	4500 nM	3900 nM	–
O=C1Nc2cc(NC(=O)c3cccn(-c4ccc(F)cc4)c3=O)ccc2/C1=C/c1ccc[nH]1	700 nM	900 nM	IC50 [11]: 7300 nM; IC50 [12]: > 10000 nM
COc1ccc(-n2cccc(C(=O)Nc3ccc4c(c3)NC(=O)/C4=C\c3ccc[nH]3)c2=O)cc1	3300 nM	5600 nM	–
O=C1Nc2cc(NC(=O)c3cccn(-c4ccccc4)c3=O)ccc2/C1=C/c1ccc[nH]1	4700 nM	5800 nM	–
Cc1ccc(-n2cccc(C(=O)Nc3ccc4c(c3)NC(=O)/C4=C\c3ccc[nH]3)c2=O)cc1	1600 nM	4200 nM	–
O=C1Nc2cc(NC(=O)c3cccn(-c4ccc(Cl)cc4)c3=O)ccc2/C1=C/c1ccc[nH]1	4900 nM	6700 nM	–
O=C1Nc2cc(NC(=O)c3cccn(-c4ccc(C(F)(F)F)cc4)c3=O)ccc2/C1=C/c1ccc[nH]1	3700 nM	3100 nM	–
O=C1Nc2cc(NC(=O)c3cccn(-c4cccc(Cl)c4)c3=O)ccc2/C1=C/c1ccc[nH]1	1500 nM	4900 nM	–
Cn1cccc(C(=O)Nc2ccc3c(c2)NC(=O)/C3=C\c2ccc[nH]2)c1=O	5900 nM	7000 nM	–

Structure (SMILES)	IC50 [2]	IC50 [5]	other results
O=C1Nc2cc(NC(=O)c3cccn(CCO)c3=O)ccc2/C1=C/c1ccc[nH]1	4500 nM	3900 nM	–
Cc1[nH]c(/C=C2\C(=O)Nc3cc(NC(=O)c4cccn(-c5ccc(F)cc5)c4=O)ccc32)c(C)c1C(=O)O	6300 nM	6100 nM	IC50 [11]: 7900 nM; IC50 [12]: > 10000 nM
Cc1[nH]c(/C=C2\C(=O)Nc3cc(NC(=O)c4cccn(C)c4=O)ccc32)c(C)c1C(=O)O	6600 nM	8100 nM	–
O=C1Nc2cc(NC(=O)c3c[nH]cc(-c4ccc(F)cc4)c3=O)ccc2/C1=C/c1ccc[nH]1	500 nM	1400 nM	IC50 [11]: 6600 nM; IC50 [12]: 7800 nM
COc1ccc(-c2c[nH]cc(C(=O)Nc3ccc4c(c3)NC(=O)/C4=C\c3ccc[nH]3)c2=O)cc1	600 nM	800 nM	–
O=C1Nc2cc(NC(=O)c3c[nH]cc(-c4ccccc4)c3=O)ccc2/C1=C/c1ccc[nH]1	500 nM	1100 nM	IC50 [9]: 33.1 nM
Cc1ccc(-c2c[nH]cc(C(=O)Nc3ccc4c(c3)NC(=O)/C4=C\c3ccc[nH]3)c2=O)cc1	500 nM	700 nM	–
O=C1Nc2cc(NC(=O)c3c[nH]cc(-c4ccc(Cl)cc4)c3=O)ccc2/C1=C/c1ccc[nH]1	< 100 nM	700 nM	–
O=C1Nc2cc(NC(=O)c3c[nH]cc(-c4ccc(C(F)(F)F)cc4)c3=O)ccc2/C1=C/c1ccc[nH]1	500 nM	700 nM	–
O=C1Nc2cc(NC(=O)c3c[nH]cc(-c4cccc(Cl)c4)c3=O)ccc2/C1=C/c1ccc[nH]1	500 nM	600 nM	–
Cc1c[nH]cc(C(=O)Nc2ccc3c(c2)NC(=O)/C3=C\c2ccc[nH]2)c1=O	5500 nM	3100 nM	–
COc1ccc(-c2c[nH]cc(C(=O)Nc3ccc4c(c3)NC(=O)/C4=C\c3[nH]c(C)c(C(=O)O)c3C)c2=O)cc1	> 10000 nM	> 10000 nM	–
Cc1[nH]c(/C=C2\C(=O)Nc3cc(NC(=O)c4c[nH]cc(-c5ccc(F)cc5)c4=O)ccc32)c(C)c1C(=O)N1CCN(C)CC1	600 nM	700 nM	–
Cc1[nH]c(/C=C2\C(=O)Nc3cc(NC(=O)c4c[nH]cc(-c5ccc(F)cc5)c4=O)ccc32)c(C)c1CC(=O)N1CCN(C)CC1	600 nM	700 nM	–
Cc1[nH]c(/C=C2\C(=O)Nc3cc(NC(=O)c4c[nH]cc(-c5ccc(F)cc5)c4=O)ccc32)c(C)c1C(=O)N1CCOCC1	5800 nM	6700 nM	–
Cc1[nH]c(/C=C2\C(=O)Nc3cc(NC(=O)c4c[nH]cc(-c5ccc(F)cc5)c4=O)ccc32)c(C)c1CC(=O)N1CCOCC1	5200 nM	6700 nM	–
CCN(CCO)CCCOc1ccc2c(Nc3cc(CC(=O)Nc4cccc(F)c4)[nH]n3)ncnc2c1 [DEFOSBARASERTIB]	100 nM	100 nM	IC50 [11]: 8300 nM; IC50 [12]: 5400 nM

From ChEMBL document CHEMBL3351387, “Bioisosteric replacement of an acylureido moiety attached to an indolin-2-one scaffold with a malonamido or a 2/4-pyridinoylamido moiety produces a selectively potent Aurora-B inhibitor” (Eur J Med Chem, 2014)
